According to patent US9725418B2, “Pyrimidine compound” (Sumitomo Chemical Company, Limited, priority 2014, dated 2017):

Columns and labels:
Format in all cases: in vivo
[1] = system: cabbage moth (Plutella xylostella); test: Test Example 1: cabbage foliar spray, cabbage moth mortality; details: 120 h, 20 mL sprayed onto cabbage, second instar larvae, 25° C., after 5 days
Method: (§1) A formulation of the compound of the present invention that was prepared according to Formulation Example 5 was diluted with water so that the active ingredient concentration was set to 500 ppm to prepare a testing agent solution.
Twenty (20) mL of the above-mentioned testing medicinal solution was sprayed onto a cabbage (Brassicae oleracea) in the third to fourth leaf stage. After the testing medicinal solution was dried, the aerial part of the plant was cut, and then was installed in a polyethylene cup (volume 100 mL) together with five heads of cabbage moth (Plutella xylostella) at the second instar larval stages. The cup was held at 25° C. and after 5 days, the number of surviving insects was counted and the mortality was calculated according to the following equation. Mortality (%)=(Number of dead larvae/Number of tested larvae)×100

[2] = system: tobacco cutworm (Spodoptera litura); test: Test Example 2: artificial diet, tobacco cutworm mortality; details: 144 h, 2 mL on artificial diet Insecta LF, fourth instar larvae, after 6 days
Method: as §1
The bottom of the polyethylene cup having 5.5 cm diameter was matted with the same size of a filter paper. Insecta LF (manufactured by NOSAN CORPORATION), an artificial diet, was sliced to 6 mm in thickness, cut into half, and then placed on the filter paper. Then, 2 mL of the test solution was poured into the polyethylene cup. After the test solution was air-dried, 5 fourth instar larvae of tobacco cutworm (Spodoptera litura) were released into the polyethylene cup and the cup was sealed with a lid. After 6 days, the number of surviving tobacco cutworm (Spodoptera litura) was counted and the mortality was calculated according to the following equation. Mortality (%)=(Number of dead larvae/Number of tested larvae)×100

[3] = system: summer fruit tortrix (Adoxophyes orana); test: Test Example 3: artificial diet, summer fruit tortrix mortality; details: 168 h, 1 mL on artificial diet SilkMate 2S, first instar larvae, after 7 days
Method: as §1
A filter paper having a diameter of 5.5 cm was spread on the bottom of a polyethylene cup having a diameter of 5.5 cm. SilkMate 2S (manufactured by NOSAN CORPORATION), an artificial diet, was sliced to 2 mm in thickness and then placed on the filter paper. Then, 1 mL of the test solution (500 ppm) was poured into the polyethylene cup. After the test solution was air-dried, the filter paper having a diameter of 5.5 cm was put on the artificial diet, and 30 first instar larvae of summer fruit tortrix (Adoxophyes orana) were released on the filter paper, and the cup was sealed with a lid. After 7 days, the number of surviving summer fruit tortrix was counted and mortality was calculated according to the following equation. Mortality (%)=(Number of dead larvae/Number of tested larvae)×100

[4] = system: rice planthopper (Nilaparvata lugens); test: Test Example 4: rice seedling spray, rice planthopper controlling value; details: 500 ppm, 10 mL sprayed on rice seedling; three to four instar larvae; 25° C.; after 6 days
Method: (§2) A formulation of the compound of the present invention that was prepared according to Formulation Example 5 was diluted with water so that the active ingredient concentration was set to 500 ppm to prepare a testing agent solution. Rice seedling (on the developmental stage of the second true leaf) was planted in a polyethylene cup, and the above-mentioned test solutions 10 mL were sprayed. After the test solution was air-dried, twenty (20) heads of three to four instar larvae of rice planthopper (Nilaparvata lugens) were released and the plants were held in a greenhouse at 25° C. After 6 days, the number of the surviving insects that were parasitic on the leaves of the rice was examined and the controlling value was calculated by the following equation. Controlling value (%)={1−(Cb×Tai)/(Cai×Tb)}×100 wherein the symbols in the formula represent the following descriptions. Cb: Number of the insects before treatment in untreated area; Cai: Number of the surviving parasitic insects at the time of the investigation in untreated area; Tb: Number of the insects before treatment in treated area; Tai: Number of the surviving parasitic insects at the time of the investigation in treated area;

[5] = system: rice planthopper (Nilaparvata lugens); test: Test Example 5: rice seedling plant foot irrigation, rice planthopper controlling value; details: 500 ppm, 5 mL irrigated into plant foot of rice seedling; larvae released after 7 days; counted after 6 days
Method: as §2, with “solutions 5” for “solutions 10”, “were irrigated into” for “were sprayed. After”, “the plant foot, and the plants were held at 25° C. in a greenhouse for 7 days. Twenty” for “the test solution was air-dried, twenty”

[6] = system: cotton aphid (Aphis gossypii); test: Test Example 6: cucumber seedling spray, cotton aphid controlling value; details: 500 ppm, 20 mL sprayed on cucumber seedling; 6 days post the spraying
Method: A formulation of the compound of the present invention that was prepared according to Formulation Example 5 was diluted with water so that the active ingredient concentration was set to 500 ppm to prepare a testing agent solution. Cucumber seedling on the developmental stage of the first true leaf) was planted in a plastic cup, and about 30 heads of cotton aphid (Aphis gossypii) were released onto the leaves of the cucumber and allowed to stand for 1 day. The above-mentioned test solutions 20 mL were sprayed into the seedling. At 6 days post the spraying, the number of the surviving insects that were parasitic on the leaves of the cucumber was examined and the controlling value was calculated by the following equation. Controlling value (%)={1−(Cb×Tai)/(Cai×Tb)}×100 wherein the symbols in the formula represent the following descriptions. Cb: Number of the insects before treatment in untreated area; Cai: Number of the surviving parasitic insects at the time of the investigation in untreated area; Tb: Number of the insects before treatment in treated area; Tai: Number of the surviving parasitic insects at the time of the investigation in treated area;

[7] = system: cotton aphid (Aphis gossypii); test: Test Example 7: cucumber root soaking, cotton aphid controlling value; details: 500 ppm, cucumber root soaked in 5 mL; inoculated one day after treatment; 7 days post the inoculation
Method: as §1
Soils were washed off from the cucumber seedlings (on the developmental stage of the first true leaf). The root of the cucumber seedlings was soaked in the above-mentioned test solutions 5 mL, and at one day after the treatment, thirty heads of cotton aphid (Aphis gossypii) (all stages of life) were inoculated onto the leaves of the cucumber. At 7 days post the inoculation, the number of the surviving insets that were parasitic on the leaves of the cucumber was examined, and the controlling value was calculated by the following equation. Controlling value (%)={1−(Cb×Tai)/(Cai×Tb)}×100 wherein the symbols in the formula represent the following descriptions.
Cb: Number of the insects before treatment in untreated area;
Cai: Number of the surviving parasitic insects at the time of the investigation in untreated area;
Tb: Number of the insects before treatment in treated area;
Tai: Number of the surviving parasitic insects at the time of the investigation in treated area;

[8] = system: two spotted spider mites (Tetranychus urticae); test: Test Example 8: kidney bean spray, two spotted spider mite controlling value; details: 500 ppm, sprayed on kidney beans; female adults; 25° C.; 13 days post the treatment
Method: as §1
Forty (40) heads of female adult of two spotted spider mites (Tetranychus urticae) were released onto kidney beans (immediately after the development of the primary leaf). Next day, the above-mentioned test solutions were sprayed with a spray gun in the dripping amount of the chemical solution. The plants were placed in a thermostatic breeding room (25° C.), and at 13 days post the treatment, the number of the surviving insects was examined, and the controlling value was calculated by the following equation. Controlling value (%)={1−(Number of the surviving female adult insects in treated area}/(Number of the surviving female adult insects in untreated area)×100

[9] = system: housefly (Musca domestica); test: Test Example 9: filter paper with sucrose bait, housefly mortality; details: 0.7 mL on filter paper, female adults, after 24 hours, read-out: Mortality of insects
Method: (§3) A Formulation of the compound of the present invention that was prepared according to Formulation Example 5 was diluted with water so that the active ingredient concentration was set to 500 ppm to prepare a testing agent solution.
The bottom of the polyethylene cup having 5.5 cm diameter was matted with the same size of a filter paper, and 0.7 mL of the above-mentioned testing agent solution was added dropwise to the filter, and 30 mg of sucrose as bait was placed in the cup uniformly. Ten (10) heads of female adult housefly (Musca domestica) were released into the polyethylene cup and the cup was covered with the lid. After 24 hours, the life and death of housefly was examined, and the number of died insects was counted and the mortality of insects was calculated by the following equation. Mortality of insects (%)=(Number of dead insects/Number of tested insects)×100

[10] = system: common house mosquito (Culex pipiens pollens); test: Test Example 10: larvae in treated water, common house mosquito mortality; details: active ingredient concentration of 3.5 ppm in water, final instar larvae, after 24 hours, read-out: Mortality of insects
Method: as §3
The above-mentioned testing agent solution 0.7 mL was added to 100 mL of ion-exchange water (the active ingredient concentration of 3.5 ppm). Twenty (20) heads of the final instar larvae of common house mosquito (Culex pipiens pollens) was released onto the above-mentioned solution. After 24 hours, the life and death of common house mosquito was examined, and the number of died insects was counted and the mortality of insects was calculated by the following equation. Mortality of insects (%)=(Number of dead insects)/(Number of tested insects)×100

[11] = system: African malaria mosquito (Anopheles gambiae); test: Test Example 11: topical application, African malaria mosquito mortality; details: 48 h, 167 ppm in acetone, 0.3 μL topically applied to pronotum of female adults, two days post the topical application, read-out: Mortality of insects
Method: Ten (10) mg of the compound of the present invention was dissolved into 3 mL of acetone. Further the agent solution was diluted with acetone to twenty times to prepare the testing agent solution (the active ingredient concentration 167 ppm). African malaria mosquito (Anopheles gambiae) adults were subjected to an anesthetic treatment with carbon dioxide gas, and then each of 0.3 μL of the above-mentioned testing agent solution was topically applied to a pronotum of a female insect. A test was carried out 10 heads per group, and after the topical application, the insects were transferred to a cup, and fed with 5% sugar solution. At two days post the topical application, the life and death of African malaria mosquito was examined, and the mortality of insects was calculated by the following equation. Mortality of insects (%)=(Number of dead insects)/(Number of tested insects)×100

## CCc1ncnc(NCCc2ccc(C(F)(F)F)cc2)c1Cl [compound of the present invention]
[1]
  mortality at 500 ppm: ≥ 80%
[2]
  mortality at 500 ppm: ≥ 80%
[3]
  mortality at 500 ppm: ≥ 90%
[4]
  Controlling value: ≥ 90%
[5]
  Controlling value: ≥ 90%
[6]
  Controlling value: ≥ 90%
[7]
  Controlling value: ≥ 90%
[8]
  Controlling value: ≥ 90%
[9]
  mortality at 500 ppm: 100%
[10]
  mortality at 3.5 ppm: ≥ 90%
[11]
  mortality at 167 ppm: ≥ 90%
